# Assay results as given in ChEMBL document CHEMBL5604063, “ASAP - DENV-2 NS2B-NS3 protease fluorescence dose response” (2024).
# Values joined by “and” are separate entries in the source; they are usually repeats but may differ in a detail not shown here. Identical values can stand only once.
# What was measured:
# Genome polyprotein [1] = molecular target: T1, Genome polyprotein (dengue virus type 2, UniProt P29990); assay type: functional, Thailand/16681/1984
# Genome polyprotein [2] = molecular target: T1, Genome polyprotein; assay type: functional, Thailand/16681/1984; remark: listed apart in the source
# T1 sequence (P29990 1346-1475 limits assumed): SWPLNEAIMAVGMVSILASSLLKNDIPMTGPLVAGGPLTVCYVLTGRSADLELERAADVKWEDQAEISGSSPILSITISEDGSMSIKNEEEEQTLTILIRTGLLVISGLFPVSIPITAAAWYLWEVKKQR
# T1 sequence (P29990 1476-2093 limits assumed): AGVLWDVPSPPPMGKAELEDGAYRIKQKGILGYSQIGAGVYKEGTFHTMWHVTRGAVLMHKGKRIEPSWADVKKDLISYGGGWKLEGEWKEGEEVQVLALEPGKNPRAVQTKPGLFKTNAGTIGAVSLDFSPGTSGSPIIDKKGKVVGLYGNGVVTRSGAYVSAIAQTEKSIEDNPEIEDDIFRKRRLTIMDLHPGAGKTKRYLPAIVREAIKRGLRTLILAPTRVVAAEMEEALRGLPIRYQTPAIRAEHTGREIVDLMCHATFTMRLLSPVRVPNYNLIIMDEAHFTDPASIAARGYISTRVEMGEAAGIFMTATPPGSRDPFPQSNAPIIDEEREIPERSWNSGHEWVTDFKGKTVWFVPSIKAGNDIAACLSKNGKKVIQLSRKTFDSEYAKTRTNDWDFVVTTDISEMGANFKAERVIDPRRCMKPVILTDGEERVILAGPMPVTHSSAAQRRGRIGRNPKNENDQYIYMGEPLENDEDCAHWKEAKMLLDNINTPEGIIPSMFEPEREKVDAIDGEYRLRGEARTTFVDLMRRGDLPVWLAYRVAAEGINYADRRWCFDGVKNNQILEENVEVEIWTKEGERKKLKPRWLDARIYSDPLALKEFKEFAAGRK
Structure (SMILES),IC50 (Genome polyprotein [1]),IC50 (Genome polyprotein [2])
O=C(O)c1cc2cc(-c3cc(Cl)cc(C4CC4)c3)ccc2[nH]1,11.4 µM and 11 µM,15.7 µM
NCc1cc(C(=O)N2CCOCC2)cc([C@@H]2C[C@H]2c2cc(Cl)cc(NC(=O)OCc3ccccc3)c2)c1,> 100 µM,44.5 µM
Cc1nnc(S(=O)(=O)N2CCC([C@H](NC(=O)OCc3ccccc3)C(=O)Nc3cccc(CN)c3)CC2)s1,> 100 µM,> 99.5 µM
Cc1ccc(C(=O)Nc2cccc(CN)c2)cc1NC(=O)Cc1ccncc1,> 100 µM,> 99.5 µM
COCCOc1ccc(Cl)cc1C(=O)Nc1ccc2c(c1)CNC2,> 100 µM,> 99.5 µM
O=C(Nc1ccc2c(c1)CNC2)c1cc(Cl)ccc1-n1cncn1,> 100 µM,> 99.5 µM
CN1C(=O)Cc2cc(C(=O)Nc3ccc4c(c3)CNC4)ccc21,> 100 µM,> 99.5 µM
N#Cc1cc(Cl)cc(C(=O)Nc2cccc(CN)c2)c1,> 100 µM,> 99.5 µM
O=C(Nc1cc(Cl)cc(C(=O)NC[C@H]2CC3(CNC3)CO2)c1)OCc1ccccc1,> 100 µM,> 99.5 µM
CNC(=O)[C@H](Nc1cc(Cl)cc(NC(=O)OCc2ccccc2)c1)c1ccc(-c2nn[nH]n2)cc1,19.2 µM,45.6 µM
NCc1cccc(NC(=O)[C@@H](NC(=O)OCc2ccccc2)C2CCN(C(=O)C3CC3)CC2)c1,> 100 µM,> 99.5 µM
O=C1C[C@H](c2cccc(-c3cc(F)cc(C(=O)Nc4ccc5c(c4)CNC5)c3)c2)N1,> 100 µM,> 99.5 µM
O=C(Nc1ccc2c(c1)CNC2)c1cc(Cl)cc(N2CCCC2=O)c1,> 100 µM,> 99.5 µM
c1coc(CSCc2nc(-c3nc[nH]n3)no2)c1,> 100 µM,> 99.5 µM
O=C(O)c1cc2cc(-c3cc(Cl)c4[nH]c(=O)oc4c3)ccc2[nH]1,63.2 µM,47.3 µM
CNCCS(=O)(=O)N1CCC([C@H](NC(=O)OCc2ccccc2)C(=O)Nc2cccc(CN)c2)CC1,> 100 µM,> 99.5 µM
NCc1cc(CO)cc([C@H]2C[C@@H]2c2cc(Cl)cc(NC(=O)OCc3ccccc3)c2)c1,> 100 µM,29.7 µM
Cc1ccc(NC(=O)c2cc(Cl)cc3[nH]ncc23)cc1N,> 100 µM,> 99.5 µM
COCCN(C)Cc1ccnc(NC(=O)c2cc(C3CC3)n(C)c2C)c1,> 100 µM,> 99.5 µM
CN(C)Cc1cccc(C(=O)Nc2cccc(CN)c2)c1,> 100 µM,> 99.5 µM
O=C(Nc1cc(Cl)cc(C(=O)Nc2ccc3c(c2)CNC3=O)c1)OCc1ccccc1,> 100 µM,> 99.5 µM

Structure (SMILES),IC50 (Genome polyprotein [1]),IC50 (Genome polyprotein [2])
O=C(NCC(F)F)[C@H](Nc1ccc2c(c1)CNC2)c1cc(Cl)cc(Cl)c1OCCN1CCOCC1,> 100 µM,> 99.5 µM
NCc1cccc(NC(=O)[C@@]23CCC[C@H](C2)N3C(=O)OCc2ccccc2)c1,> 100 µM,> 99.5 µM
Cc1c(C(=O)Nc2cc(-c3ccccc3)ccn2)cc(C2CC2)n1C,> 100 µM,> 99.5 µM
NCc1cccc(NC(=O)c2cccc(Oc3ccc(Cl)c(Cl)c3)n2)c1,> 100 µM,95.6 µM
O=C(Nc1cc(Cl)cc([C@H]2Nc3ccc(-c4nn[nH]n4)cc3[C@H]3OCCC[C@@H]23)c1)OCc1ccccc1,> 100 µM,> 99.5 µM
CN1CCC(COc2ccc([C@@H](NC(=O)OCc3ccccc3)C(=O)Nc3cccc(CN)c3)cc2)CC1,> 100 µM,> 99.5 µM
O=C(Nc1ccc2c(c1)CNC2)c1nc(C(F)(F)F)cs1,> 100 µM,> 99.5 µM
N#C[C@H](Nc1ccc(CCC(=O)O)cn1)c1cc(Cl)cc(C2CC2)c1,> 100 µM,> 99.5 µM
O=C(Nc1ccc2c(c1)CNC2)c1cccc2[nH]ccc12,> 100 µM,> 99.5 µM
COCC(=O)N1CCC([C@@H](NC(=O)OCc2ccccc2)C(=O)Nc2cccc(CN)c2)CC1,> 100 µM,> 99.5 µM
O=C1Cc2c(cccc2C(=O)Nc2ccc(O[C@H]3CCOC3)nc2)N1,> 100 µM,> 99.5 µM
N[C@H]1CC[C@H](NC(=O)c2cc(Cl)cc(NC(=O)OCc3ccccc3)c2)C1,> 100 µM,> 99.5 µM
O=C(NCC(F)F)[C@H](Nc1ccc2c(c1)CNC2)c1cc(Cl)cc(C2CC2)c1,> 100 µM,> 99.5 µM
COc1ccc(-c2nc3c(C(=O)Nc4ccc5c(c4)CNC5)cc(F)cc3[nH]2)nn1,32 µM and 19 µM and 38 µM and 36.5 µM,11.4 µM and 19.1 µM and 8.41 µM
Cn1nc(C(=O)Nc2cccc(CN)c2)cc1C1CC1,> 100 µM,> 99.5 µM
O=C1Cc2c(cccc2C(=O)Nc2cnn(Cc3ccncc3)c2)N1,> 100 µM,> 99.5 µM
NCCCc1ccnc(NC(=O)c2cc(Cl)cc(NC(=O)OCc3ccccc3)c2)c1,> 100 µM,48.2 µM
O=C(Nc1cc(Cl)cc(C(=O)Nc2cccc([C@H]3CCNC3)c2)c1)OCc1ccccc1,95.4 µM and > 100 µM,33.3 µM and 58.3 µM and 41.4 µM
O=C(Nc1cc(Cl)cc(C(=O)Nc2cncc(C(=O)O)c2)c1)OCc1ccccc1,32.1 µM and 27.5 µM,70 µM
O=C(Nc1ccc2c(c1)C(=O)OC2)c1cc(CC2CCNCC2)ccc1F,> 100 µM,> 99.5 µM
CC(C)Nc1c(-c2cc(Cl)cc3[nH]ncc23)nc2ccc3c(n12)CNC3,> 100 µM,> 99.5 µM
